Columns and labels:
[1] = Plasma concentration vs. time after single intravenous and oral dose (IV and oral clearance); format: in vivo, Sprague-Dawley rats; conditions: rats having "normal" gut function; single dose given intravenously and orally (FIG. 3)
Source text: (§1) Example 1 may be categorized as fluorescent challenge molecule is not substantially absorbed by a healthy gut.

[2] = Light absorption and emission maxima of the fluorescent challenge molecule; format: physicochemical
Source text: as §1
Example 2 may be categorized as fluorescent challenge molecule is not substantially absorbed by a healthy gut as the molecular weight is relatively high (344 g/mol).
(§2) Example 3 may be categorized as fluorescent challenge molecule that is substantially absorbed by a healthy gut as the molecular weight is relatively low (198 g/mol).

[3] = Clearance from the body followed by fluorescence signal, with and without ligated kidneys; format: in vivo; conditions: for clearance pathway from the body: fluorescence signal over time
Source text: as §2

| Compound | oral bioavailability [1] | light absorption maximum [2] | light emission maximum [2] | clearance pathway from the body [3] | clearance pathway from the body ([3]; listed as Example Compound 3) | fluorescence signal when the kidneys are ligated ([3]; kidneys ligated, no excretion pathway) |
| --- | --- | --- | --- | --- | --- | --- |
| Nc1nc(C(=O)N[C@H](CO)C(=O)O)c(N)nc1C(=O)N[C@H](CO)C(=O)O [Example 1, 3,6-diamino-2,5-bis{N-[(1R)-1-carboxy-2-hydroxyethyl]carbamoyl}pyrazine] | very little | 445 nm | 560 nm | – | – | – |
| NC(=O)c1nc(NCC(O)CO)c(C(N)=O)nc1NCC(O)CO (stereo not shown) [Example 2, 3,6-N,N′-bis(2,3-dihydroxypropyl)-2,5-pyrazinedicarboxamide] | – | 486 nm | 600 nm | – | – | – |
| Nc1nc(C(=O)O)c(N)nc1C(=O)O [Example 3, 3,6-diaminopyrazine-2,5-dicarboxylic Acid] | – | 396 nm | 536 nm | clears from the body by the renal system | clears from the body via the renal system | stays elevated |

Reference: patent publication US12048751B2, “Compositions and methods for assessing gut function” (MediBeacon Inc., priority 2013, dated 2024)
